Test results: ChEMBL document CHEMBL5131532, “Synthesis and Evaluation of Small Molecule Disruptors of the Aha1/Hsp90 Complex for the Reduction of Tau Aggregation” (ACS Med Chem Lett, 2022)
The source made the active and inactive calls. The calls are words filed in the database; no cut-off is given here.

Assays:
[1] = Disruption of recombinant GST-tagged human Aha1/His6-tagged full length human Hsp90alpha protein-protein interaction expressed in Escherichia coli incubated for 4 hrs by AlphaLisa assay
[2] = species on record: Homo sapiens; assay: Disruption of recombinant human Aha1/Hsp90 alpha protein-protein interaction expressed in Escherichia coli […] assessed as inhibition of recombinant human P301L tau aggregation incubated for 30 mins by ThT fluorescence assay
[3] = test system: SK-BR-3; assay: Disruption of Aha1/Hsp90 protein-protein interaction in human SK-BR-3 cells lysate at 10 uM incubated for 24 hrs by co-immunoprecipitation assay; type: subcellular
[4] = test system: SH-SY5Y; assay: Disruption of Aha1/Hsp90 alpha protein-protein interaction in human SH-SY5Y cells lysate at 10 uM incubated for 24 hrs by co-immunoprecipitation assay; type: subcellular

In the case of COc1cccc(-c2cc(C(=O)Nc3ccc(OC)cc3OC)ccc2OC)c1, the IC50 [1] is reported as 9.53 µM.
In the case of COc1cc(NC(=O)c2ccc(OC)c(-c3cccc(OC)c3)c2)cc(OC)c1, the IC50 [1] is reported as greater than 10 µM.
Work on COc1ccc(C(=O)Nc2ccc(C(F)(F)F)cc2)c(-c2cccc(O)c2)c1 yielded an IC50 [1] greater than 10 µM.
In the case of COc1ccc(C(=O)Nc2ccc(C(F)(F)F)cc2)cc1-c1ccc(C(F)(F)F)cc1, the IC50 [1] is reported as greater than 10 µM.
COc1ccc(C(=O)Nc2ccc(C(F)(F)F)cc2)cc1-c1cccc(F)c1 showed an IC50 [1] greater than 10 µM.
Compound COc1ccc(NC(=O)c2ccc(OC)c(-c3cccc(OC)c3)c2)cc1 has an IC50 [1] greater than 10 µM.
Work on COc1ccc(C(=O)Nc2ccc(C(F)(F)F)cc2)cc1-c1c(OC)cccc1OC yielded an IC50 [1] of 9.05 µM.
With COc1ccc(C(=O)Nc2ccc(C(F)(F)F)cc2)cc1-c1ccccc1 the IC50 [1] was greater than 10 µM.
COc1ccc(C(=O)Nc2ccc(C(F)(F)F)cc2)cc1-c1cccc(OC)c1OC showed an IC50 [1] greater than 10 µM.
COc1ccc(C(=O)Nc2ccc(C(F)(F)F)cc2)cc1-c1ccc(Cl)c(C(F)(F)F)c1 gave an IC50 [1] greater than 10 µM.
In the case of COc1cccc(-c2cc(C(=O)Nc3ccc(C#N)cc3)ccc2OC)c1, the IC50 [1] is reported as 8.57 µM.
Work on COC(=O)c1ccc(NC(=O)c2ccc(OC)c(-c3cccc(OC)c3)c2)cc1 yielded an IC50 [1] greater than 10 µM.
Compound COc1ccc(C(=O)Nc2ccc(C(F)(F)F)cc2)cc1-c1ccccc1O has an IC50 [1] greater than 10 µM.
In the case of COc1cccc(-c2cc(C(=O)Nc3ccc(O)cc3)ccc2OC)c1, the IC50 [1] is reported as greater than 10 µM.
With COc1cccc(-c2cc(OC)ccc2C(=O)Nc2ccc(C(F)(F)F)cc2)c1 the IC50 [1] was greater than 10 µM.
COc1ccc(C(=O)Nc2ccc(C(F)(F)F)cc2)cc1-c1ccc(Cl)c(Cl)c1 gave an IC50 [1] greater than 10 µM.
COc1cccc(-c2cc(C(=O)Nc3ccc(F)cc3)ccc2OC)c1 showed an IC50 [1] of 6.32 µM.
For COc1ccc(C(=O)Nc2ccc(C(F)(F)F)cc2)cc1-c1cccc(C(F)(F)F)c1, the IC50 [1] was greater than 10 µM.
With COc1ccc(C(=O)Nc2ccc(C(F)(F)F)cc2)cc1-c1ccc(O)cc1 the IC50 [1] was 6.39 µM.
In the case of COc1cccc(-c2cc(C(=O)Nc3ccc([N+](=O)[O-])cc3)ccc2OC)c1, the IC50 [1] is reported as 4.04 µM.
With COc1cccc(-c2cc(C(=O)Nc3ccccc3)ccc2OC)c1 the IC50 [1] was greater than 10 µM.
COc1ccc(C(=O)Nc2ccc(C(F)(F)F)cc2)c(-c2ccc(Cl)c(Cl)c2)c1 gave an IC50 [1] greater than 10 µM.
Work on COc1cccc(-c2cc(C(=O)Nc3ccc(Cl)cc3Cl)ccc2OC)c1 yielded an IC50 [1] greater than 10 µM.
With COc1ccccc1-c1cc(C(=O)Nc2ccc(C(F)(F)F)cc2)ccc1OC the IC50 [1] was 9.65 µM.
Compound COc1cccc(-c2cc(C(=O)Nc3ccccc3Cl)ccc2OC)c1 has an IC50 [1] greater than 10 µM.
In the case of COc1ccc(-c2cc(C(=O)Nc3ccc(C(F)(F)F)cc3)ccc2OC)cc1, the IC50 [1] is reported as greater than 10 µM.
Work on COc1ccc(C(=O)Nc2ccc(C(F)(F)F)cc2)cc1-c1cccc(Cl)c1 yielded an IC50 [1] greater than 10 µM.
Compound COc1ccc(C(=O)Nc2ccc(C(F)(F)F)cc2)cc1-c1cccc(CO)c1 has an IC50 [1] greater than 10 µM.
COc1ccc(C(=O)Nc2ccc(C(F)(F)F)cc2)c(-c2ccccc2OC)c1 showed an IC50 [1] greater than 10 µM.
With COc1cccc(-c2cc(C(=O)Nc3ccc(Cl)cc3)ccc2OC)c1 the IC50 [1] was 6.03 µM.
With COc1ccc(C(=O)Nc2ccc(C(F)(F)F)cc2)c(-c2ccc(Cl)c(C(F)(F)F)c2)c1 the IC50 [1] was greater than 10 µM.
With COc1ccc(C(=O)Nc2ccc(C(F)(F)F)cc2)cc1-c1cccc(N(C)C)c1 the IC50 [1] was 3.36 µM, the Activity [2] was “Active” and the Activity [3] was “Active”. For the same compound, the Activity [4] was “Active”.
Compound COc1ccc(C(=O)Nc2ccc(C(F)(F)F)cc2)c(-c2ccccc2)c1 has an IC50 [1] greater than 10 µM.
COc1ccc(C(=O)Nc2ccc(C(F)(F)F)cc2)cc1-c1cccc(O)c1 showed an IC50 [1] greater than 10 µM.
In the case of COc1ccc(-c2cc(OC)ccc2C(=O)Nc2ccc(C(F)(F)F)cc2)cc1, the IC50 [1] is reported as greater than 10 µM.
With COc1cccc(-c2cc(C(=O)Nc3cccc(Cl)c3Cl)ccc2OC)c1 the IC50 [1] was greater than 10 µM.
COc1ccc(C(=O)Nc2ccc(C(F)(F)F)cc2)cc1-c1ccc(Cl)cc1 gave an IC50 [1] greater than 10 µM.
With COc1ccc(C(=O)Nc2ccc(C(F)(F)F)cc2)c(-c2ccc(Cl)cc2)c1 the IC50 [1] was greater than 10 µM.
With COc1cccc(-c2cc(-c3nnnn3-c3ccc(C(F)(F)F)cc3)ccc2OC)c1 the IC50 [1] was 3.32 µM, the Activity [2] was “Active” and the Activity [3] was “Active”. The Activity [4] was “Active”.
COc1ccc(C(=O)Nc2ccc(C(F)(F)F)cc2)c(-c2ccc(O)cc2)c1 showed an IC50 [1] greater than 10 µM.
For COc1cccc(-c2cc(C(=O)Nc3cccc([N+](=O)[O-])c3)ccc2OC)c1, the IC50 [1] was greater than 10 µM.
With COc1cccc(-c2cc(C(=O)Nc3ccc(C(F)(F)F)cc3)ccc2OC)c1 the IC50 [1] was 4.83 µM, the Activity [3] was “Active” and the Activity [4] was “Active”.
With COc1ccc(C(=O)Nc2ccc(C(F)(F)F)cc2)cc1-c1cccc(N)c1 the IC50 [1] was 7.23 µM.
With COc1cccc(-c2cc(C(=O)Nc3cccc(Cl)c3)ccc2OC)c1 the IC50 [1] was greater than 10 µM.
Compound COC(=O)c1cccc(NC(=O)c2ccc(OC)c(-c3cccc(OC)c3)c2)c1 has an IC50 [1] greater than 10 µM.
